Test results from US8916575B2, “Quinazoline derivatives for the treatment of viral infections and further diseases” (Janssen R&D Ireland, priority 2011, dated 2014).

Legend:
[1] = target: T1, human TLR8 (Homo sapiens, UniProt Q9NR97); experiment: TLR8 wild type NFκB-luc cellular reporter assay; format: cell-based; parameters: unit not given here; settings: HEK293 NFκB-luc reporter, 6 hours incubation; second part of table
T1 construct: expressed in transfected cells; host or cells: HEK293
T1 sequence (Q9NR97 27-1041): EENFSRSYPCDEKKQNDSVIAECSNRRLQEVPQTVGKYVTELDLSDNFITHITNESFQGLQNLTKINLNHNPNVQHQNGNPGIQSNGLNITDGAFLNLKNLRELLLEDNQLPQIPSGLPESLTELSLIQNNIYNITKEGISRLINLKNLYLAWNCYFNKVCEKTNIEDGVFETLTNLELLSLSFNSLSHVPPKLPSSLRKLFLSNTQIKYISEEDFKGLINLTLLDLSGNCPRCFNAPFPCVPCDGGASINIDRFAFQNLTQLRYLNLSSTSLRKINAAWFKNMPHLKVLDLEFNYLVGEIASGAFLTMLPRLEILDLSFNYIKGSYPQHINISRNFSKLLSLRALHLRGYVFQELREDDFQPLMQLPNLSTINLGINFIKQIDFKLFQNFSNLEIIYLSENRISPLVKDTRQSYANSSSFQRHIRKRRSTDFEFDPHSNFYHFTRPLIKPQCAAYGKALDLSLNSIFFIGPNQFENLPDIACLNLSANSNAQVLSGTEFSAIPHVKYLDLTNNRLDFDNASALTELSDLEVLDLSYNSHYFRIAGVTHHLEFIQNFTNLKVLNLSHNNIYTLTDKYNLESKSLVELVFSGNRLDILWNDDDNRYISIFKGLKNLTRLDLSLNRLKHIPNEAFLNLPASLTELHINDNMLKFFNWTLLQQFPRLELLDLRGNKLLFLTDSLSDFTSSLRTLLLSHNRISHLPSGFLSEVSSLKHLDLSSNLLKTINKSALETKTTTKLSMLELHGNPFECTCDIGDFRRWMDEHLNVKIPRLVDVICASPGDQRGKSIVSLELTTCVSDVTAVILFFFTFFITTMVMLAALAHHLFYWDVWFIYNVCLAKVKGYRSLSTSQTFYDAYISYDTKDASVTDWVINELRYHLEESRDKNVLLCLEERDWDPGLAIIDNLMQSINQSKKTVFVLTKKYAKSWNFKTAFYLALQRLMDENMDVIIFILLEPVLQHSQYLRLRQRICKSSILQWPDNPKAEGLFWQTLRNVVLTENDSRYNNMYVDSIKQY
In short: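 HEK293 cells transiently transfected with wild-type or second-LRR-deletion (dIRR2) TLR7/TLR8 plasmid plus NFκB-luc, 24 h; compound added for 6 h at 37 °C. Luciferase read-out, quadruplicate dose responses. LEC = lowest concentration giving effect at least two-fold above assay SD.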

[2] = target: T2, human TLR7 (Homo sapiens, UniProt Q9NYK1); experiment: TLR7 wild type NFκB-luc cellular reporter assay; format: cell-based; parameters: unit not given here; settings: HEK293 NFκB-luc reporter, 6 hours incubation; second part of table
T2 construct: expressed in transfected cells; host or cells: HEK293
T2 sequence (Q9NYK1 27-1049): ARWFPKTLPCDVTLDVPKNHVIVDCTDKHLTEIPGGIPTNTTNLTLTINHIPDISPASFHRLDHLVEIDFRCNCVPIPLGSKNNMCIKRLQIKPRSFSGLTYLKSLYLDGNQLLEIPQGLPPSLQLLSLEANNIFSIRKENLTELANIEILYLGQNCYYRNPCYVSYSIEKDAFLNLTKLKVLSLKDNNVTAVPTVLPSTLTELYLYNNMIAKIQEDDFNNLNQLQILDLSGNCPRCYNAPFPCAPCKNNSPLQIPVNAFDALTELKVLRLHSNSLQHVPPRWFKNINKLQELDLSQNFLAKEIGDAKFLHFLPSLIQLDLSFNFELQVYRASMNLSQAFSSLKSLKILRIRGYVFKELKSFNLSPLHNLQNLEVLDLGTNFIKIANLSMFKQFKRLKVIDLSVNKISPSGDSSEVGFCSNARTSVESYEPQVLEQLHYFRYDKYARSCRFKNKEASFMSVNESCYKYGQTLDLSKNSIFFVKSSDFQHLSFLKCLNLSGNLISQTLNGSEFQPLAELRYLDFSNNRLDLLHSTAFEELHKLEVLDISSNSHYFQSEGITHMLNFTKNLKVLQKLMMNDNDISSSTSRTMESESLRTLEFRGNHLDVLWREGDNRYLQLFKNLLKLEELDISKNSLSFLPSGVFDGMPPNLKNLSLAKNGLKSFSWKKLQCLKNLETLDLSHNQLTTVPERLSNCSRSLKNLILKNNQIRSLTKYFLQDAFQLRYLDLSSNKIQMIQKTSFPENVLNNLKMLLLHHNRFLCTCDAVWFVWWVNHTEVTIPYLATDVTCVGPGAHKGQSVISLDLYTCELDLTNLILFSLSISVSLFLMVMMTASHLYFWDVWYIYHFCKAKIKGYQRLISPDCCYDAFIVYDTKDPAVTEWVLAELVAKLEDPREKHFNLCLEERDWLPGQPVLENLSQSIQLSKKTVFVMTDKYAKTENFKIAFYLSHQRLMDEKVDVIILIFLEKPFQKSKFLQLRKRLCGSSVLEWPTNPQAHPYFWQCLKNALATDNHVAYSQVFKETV

## CCC[C@@H](CO)Nc1nc(N)nc2c(F)cccc12 [Compound 47]
[1]
  TLR8-wt (LEC): 0.03
[2]
  TLR7-wt (LEC): 0.67

## CCC[C@@H](CCO)Nc1nc(N)nc2cc(OC)ccc12 [Compound 78]
[1]
  TLR8-wt (LEC): 0.13
[2]
  TLR7-wt (LEC): 0.20

## CCCC[C@@H](CO)Nc1nc(N)nc2c(F)cccc12 [Compound 59]
[1]
  TLR8-wt (LEC): 0.04
[2]
  TLR7-wt (LEC): 0.29

## CCCC[C@@H](CCO)Nc1nc(N)nc2cccc(F)c12 [Compound 84]
[1]
  TLR8-wt (LEC): 0.10
[2]
  TLR7-wt (LEC): 0.44

## CCC[C@@H](CO)Nc1nc(N)nc2ccc(OC)cc12 [Compound 57]
[1]
  TLR8-wt (LEC): 0.53
[2]
  TLR7-wt (LEC): 10.77

## CCCCNc1nc(N)nc2ccc(Oc3ccc(C(F)(F)F)cc3Cl)cc12 [Compound 35]
[1]
  TLR8-wt (LEC): >25
[2]
  TLR7-wt (LEC): 4.15
